By EC50 is commonly meant the concentration at which the effect is half-maximal.

These results are taken from patent US9499550B2 (BRISTOL-MYERS SQUIBB COMPANY, priority 2012, dated 2016).

For test [1], the system named is HCV genotype 1a (H77 strain) replicon in HUH-7 cells. The test can be described thus: HCV replicon luciferase reporter assay, genotype 1a. It counts as cell-based. The note with it: Hepatitis C virus, Huh-7, 72 h, HCV genotype 1a replicon luciferase assay, 3 days incubation, range class, read-out: LE_1a (EC50, range). In outline: (§1)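 Replicon inhibition for both genotypes was measured as Renilla luciferase signal (EnduRen, 7.5 μM final, 2 h) after 3-day, 37° C exposure of replicon-bearing HUH-7 cells in 4% FCS DMEM, 0.5% DMSO. The 1b construct carries S1179I; the 1a H77 construct carries P1496L and S2204I. Twenty-point, 3-fold dilutions were fitted four-parametrically for EC50, and CC50 was taken from multiplexed Cell Titer-Blue.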
In general terms: A replicon is a self-replicating genome or part of one, used to study replication in cells.

The subject of test [2] is HCV genotype 1b (Con1) replicon in HUH-7 cells. The test can be described thus: HCV replicon luciferase reporter assay, genotype 1b. The test is classed as cell-based. The note with it: Hepatitis C virus, Huh-7, 72 h, HCV genotype 1b replicon luciferase assay, 3 days incubation, range class, read-out: LE_1b (EC50, range). The gist of the method:
as §1

A value given as a limit tells only on which side of the number the result lay.

With `C[C@H]1CC/C=C\[C@@H]2C[C@@]2(C(=O)NS(=O)(=O)C2(C)CC2)NC(=O)[C@@H]2C[C@@H](Oc3ncc(OCC(F)F)c4ccccc34)CN2C(=O)[C@@H](NC(=O)OC(C)(C)C(F)(F)F)[C@H](C)C1` [Compound 1029, 1,1,1-trifluoro-2-methylpropan-2-yl((2R,6S,7R,9S,13aS,14aR,16aS,Z)-2-((4-(2,2-difluoroethoxyl)isoquinolin-1-yl)oxy)-7,9-dimethyl-14a-(((1-methylcyclopropyl)sulfonyl)carbamoyl)-5,16-dioxo-1,2,3,5,6,7,8,9,10,11,13a,14,14a,15,16,16a-hexadecahydrocyclopropa[e]pyrrolo[1,2-a][1,4]diazacyclopentadecin-6-yl)carbamate], the EC50 in test [1] and in test [2] was 4.82 to 103 nM each time.
On to `C[C@@H]1CC/C=C\[C@@H]2C[C@@]2(C(=O)NS(=O)(=O)C2(C)CC2)NC(=O)[C@@H]2C[C@@H](Oc3ncc(OCC(F)F)c4ccccc34)CN2C(=O)[C@@H](NC(=O)OC(C)(C)C(F)(F)F)[C@H](C)C1` [Compound 1030, 1,1,1-trifluoro-2-methylpropan-2-yl((2R,6S,7R,9R,13aS,14aR,16aS,Z)-2-((4-(2,2-difluoroethoxyl)isoquinolin-1-yl)oxy)-7,9-dimethyl-14a-(((1-methylcyclopropyl)sulfonyl)carbamoyl)-5,16-dioxo-1,2,3,5,6,7,8,9,10,11,13a,14,14a,15,16,16a-hexadecahydrocyclopropa[e]pyrrolo[1,2-a][1,4]diazacyclopentadecin-6-yl)carbamate], for which the 50% effective concentration (EC50) in test [1] and in test [2] was under 5.46 nM in each case.
As to `C[C@H]1CC/C=C\[C@@H]2C[C@@]2(C(=O)NS(=O)(=O)C2CC2)NC(=O)[C@@H]2C[C@@H](Oc3ncc(OCC(F)F)c4ccccc34)CN2C(=O)[C@@H](NC(=O)OC(C)(C)C(F)(F)F)[C@H](C)C1` [Compound 1031, 1,1,1-trifluoro-2-methylpropan-2-yl((2R,6S,7R,9S,13aS,14aR,16aS,Z)-14a-((cyclopropylsulfonyl)carbamoyl)-2-((4-(2,2-difluoroethoxyl)isoquinolin-1-yl)oxy)-7,9-dimethyl-5,16-dioxo-1,2,3,5,6,7,8,9,10,11,13a,14,14a,15,16,16a-hexadecahydrocyclopropa[e]pyrrolo[1,2-a][1,4]diazacyclopentadecin-6-yl)carbamate], the EC50 in test [1] and in test [2] was 4.82 to 103 nM throughout.
As to `C[C@@H]1CC/C=C\[C@@H]2C[C@@]2(C(=O)NS(=O)(=O)C2CC2)NC(=O)[C@@H]2C[C@@H](Oc3ncc(OCC(F)F)c4ccccc34)CN2C(=O)[C@@H](NC(=O)OC(C)(C)C(F)(F)F)[C@H](C)C1` [Compound 1032, 1,1,1-trifluoro-2-methylpropan-2-yl((2R,6S,7R,9R,13aS,14aR,16aS,Z)-14a-((cyclopropylsulfonyl)carbamoyl)-2-((4-(2,2-difluoroethoxyl)isoquinolin-1-yl)oxy)-7,9-dimethyl-5,16-dioxo-1,2,3,5,6,7,8,9,10,11,13a,14,14a,15,16,16a-hexadecahydrocyclopropa[e]pyrrolo[1,2-a][1,4]diazacyclopentadecin-6-yl)carbamate], the EC50 in test [1] and in test [2] was under 5.46 nM each time.
With `COCCOc1cnc(O[C@@H]2C[C@H]3C(=O)N[C@]4(C(=O)NS(=O)(=O)C5CC5)C[C@H]4/C=C\CC[C@@H](C)C[C@@H](C)[C@H](NC(=O)OC(C)(C)C)C(=O)N3C2)c2ccccc12` [Compound 1033, tert-butyl ((2R,6S,7R,9R,13aS,14aR,16aS,Z)-14a-((cyclopropylsulfonyl)carbamoyl)-2-((4-(2-methoxyethoxyl)isoquinolin-1-yl)oxy)-7,9-dimethyl-5,16-dioxo-1,2,3,5,6,7,8,9,10,11,13a,14,14a,15,16,16a-hexadecahydrocyclopropa[e]pyrrolo[1,2-a][1,4]diazacyclopentadecin-6-yl)carbamate], the 50% effective concentration (EC50) in test [1] and in test [2] was under 5.46 nM each time.
On to `C[C@@H]1CC/C=C\[C@@H]2C[C@@]2(C(=O)NS(=O)(=O)C2CC2)NC(=O)[C@@H]2C[C@@H](Oc3ncc(OCC(F)F)c4ccccc34)CN2C(=O)[C@@H](NC(=O)O[C@H](C)C(F)(F)F)[C@H](C)C1` [Compound 1034, (R)-1,1,1-trifluoropropan-2-yl((2R,6S,7R,9R,13aS,14aR,16aS,Z)-14a-((cyclopropylsulfonyl)carbamoyl)-2-((4-(2,2-difluoroethoxyl)isoquinolin-1-yl)oxy)-7,9-dimethyl-5,16-dioxo-1,2,3,5,6,7,8,9,10,11,13a,14,14a,15,16,16a-hexadecahydrocyclopropa[e]pyrrolo[1,2-a][1,4]diazacyclopentadecin-6-yl)carbamate], for which the EC50 in test [1] and in test [2] was under 5.46 nM in each case.
`C[C@H]1CC/C=C\[C@@H]2C[C@@]2(C(=O)NS(=O)(=O)C2(C)CC2)NC(=O)[C@@H]2C[C@@H](Oc3ncc(OCC(F)F)c4ccccc34)CN2C(=O)[C@@H](NC(=O)O[C@H](C)C(F)(F)F)[C@H](C)C1` [Compound 1035, (R)-1,1,1-trifluoropropan-2-yl ((2R,6S,7R,9S,13aS,14aR,16aS,Z)-2-((4-(2,2-difluoroethoxyl)isoquinolin-1-yl)oxy)-7,9-dimethyl-14a-(((1-methylcyclopropyl)sulfonyl)carbamoyl)-5,16-dioxo-1,2,3,5,6,7,8,9,10,11,13a,14,14a,15,16,16a-hexadecahydrocyclopropa[e]pyrrolo[1,2-a][1,4]diazacyclopentadecin-6-yl)carbamate]: the EC50 in test [1] and in test [2] was 4.82 to 103 nM throughout.
Regarding `C[C@@H]1CC/C=C\[C@@H]2C[C@@]2(C(=O)NS(=O)(=O)C2(C)CC2)NC(=O)[C@@H]2C[C@@H](Oc3ncc(OCC(F)F)c4ccccc34)CN2C(=O)[C@@H](NC(=O)O[C@H](C)C(F)(F)F)[C@H](C)C1` [Compound 1036, (R)-1,1,1-trifluoropropan-2-yl ((2R,6S,7R,9R,13aS,14aR,16aS,Z)-2-((4-(2,2-difluoroethoxyl)isoquinolin-1-yl)oxy)-7,9-dimethyl-14a-(((1-methylcyclopropyl)sulfonyl)carbamoyl)-5,16-dioxo-1,2,3,5,6,7,8,9,10,11,13a,14,14a,15,16,16a-hexadecahydrocyclopropa[e]pyrrolo[1,2-a][1,4]diazacyclopentadecin-6-yl)carbamate], the EC50 in test [1] and in test [2] was under 5.46 nM in each case.
`COCCOc1cnc(O[C@@H]2C[C@H]3C(=O)N[C@]4(C(=O)NS(=O)(=O)C5(C)CC5)C[C@H]4/C=C\CC[C@H](C)C[C@@H](C)[C@H](NC(=O)OC(C)(C)C(F)(F)F)C(=O)N3C2)c2ccccc12` [Compound 1037, 1,1,1-trifluoro-2-methylpropan-2-yl((2R,6S,7R,9S,13aS,14aR,16aS,Z)-2-((4-(2-methoxyethoxyl)isoquinolin-1-yl)oxy)-7,9-dimethyl-14a-(((1-methylcyclopropyl)sulfonyl)carbamoyl)-5,16-dioxo-1,2,3,5,6,7,8,9,10,11,13a,14,14a,15,16,16a-hexadecahydrocyclopropa[e]pyrrolo[1,2-a][1,4]diazacyclopentadecin-6-yl)carbamate]: the EC50 in test [1] and in test [2] was 4.82 to 103 nM each time.
For the compound `COCCOc1cnc(O[C@@H]2C[C@H]3C(=O)N[C@]4(C(=O)NS(=O)(=O)C5(C)CC5)C[C@H]4/C=C\CC[C@@H](C)C[C@@H](C)[C@H](NC(=O)OC(C)(C)C(F)(F)F)C(=O)N3C2)c2ccccc12` [Compound 1038, 1,1,1-trifluoro-2-methylpropan-2-yl((2R,6S,7R,9R,13aS,14aR,16aS,Z)-2-((4-(2-methoxyethoxyl)isoquinolin-1-yl)oxy)-7,9-dimethyl-14a-(((1-methylcyclopropyl)sulfonyl)carbamoyl)-5,16-dioxo-1,2,3,5,6,7,8,9,10,11,13a,14,14a,15,16,16a-hexadecahydrocyclopropa[e]pyrrolo[1,2-a][1,4]diazacyclopentadecin-6-yl)carbamate], the EC50 in test [1] and in test [2] was under 5.46 nM throughout.
For `COCCOc1cnc(O[C@@H]2C[C@H]3C(=O)N[C@]4(C(=O)NS(=O)(=O)C5(C)CC5)C[C@H]4/C=C\CC[C@@H](C)C[C@@H](C)[C@H](NC(=O)OC4C[C@@H]5C[C@H]5C4)C(=O)N3C2)c2ccccc12` [Compound 1039, (1S,5S)-bicyclo[3.1.0]hexan-3-yl((2R,6S,7R,9R,13aS,14aR,16aS,Z)-2-((4-(2-methoxyethoxyl)isoquinolin-1-yl)oxy)-7,9-dimethyl-14a-(((1-methylcyclopropyl)sulfonyl)carbamoyl)-5,16-dioxo-1,2,3,5,6,7,8,9,10,11,13a,14,14a,15,16,16a-hexadecahydrocyclopropa[e]pyrrolo[1,2-a][1,4]diazacyclopentadecin-6-yl)carbamate], the EC50 in test [1] and in test [2] was under 5.46 nM in each case.
On to `COCCOc1cnc(O[C@@H]2C[C@H]3C(=O)N[C@]4(C(=O)NS(=O)(=O)C5CC5)C[C@H]4/C=C\CC[C@@H](C)C[C@@H](C)[C@H](NC(=O)OC4C[C@@H]5C[C@H]5C4)C(=O)N3C2)c2ccccc12` [Compound 1040, (1S,5S)-bicyclo[3.1.0]hexan-3-yl((2R,6S,7R,9R,13aS,14aR,16aS,Z)-14a-((cyclopropylsulfonyl)carbamoyl)-2-((4-(2-methoxyethoxyl)isoquinolin-1-yl)oxy)-7,9-dimethyl-5,16-dioxo-1,2,3,5,6,7,8,9,10,11,13a,14,14a,15,16,16a-hexadecahydrocyclopropa[e]pyrrolo[1,2-a][1,4]diazacyclopentadecin-6-yl)carbamate], for which the EC50 in test [1] and in test [2] was under 5.46 nM throughout.
